Results taken from patent publication US20130072385A1, “METHODS FOR DELAYING BUD BREAK BY APPLYING ABA ANALOGS” (priority 2011, published 2013).

Test system: Concord grapevines
Assay: Fall soil drench of potted Concord grapevines, bud break the following spring
Assay type: in vivo
Settings: 1000 ppm (1000 mg/pot) fall soil drench
Protocol: A study was conducted to determine the effect of application of ABA or ABA analog as a soil drench in the fall on bud break of potted Concord grapevines the following spring. Two year old eco-dormant Concord grapevines were obtained from a Concord Nurseries in the spring. Bare-root vines were planted in 14 liter pots filled with Promix BX (available from Premier Horticulture Inc. Quakertown, Pa.) and grown outside for about 5 months (May October) prior to treatment. Plants received irrigation as needed and fertilized weekly (1 g/L all purpose fertilizer 20-20-20, The Scotts Company, Marysville, Ohio). Uniform plants were selected for the study. A total of 1000 mL of water or chemical solution was applied to the soil of each plant.
After chemical treatment, the ten replicate plants per treatment were arranged in a randomized complete block experimental design. The potted vines were surrounded by bark chips the depth of the soil in the pot to insulate the roots and prevent cold damage. The plants became dormant for the winter. In the following spring the vines were pruned to 5 buds per vine before bud break and bud break was monitored over time (Table 4). The buds were rated for bud break periodically on a scale from 1 for no growth to 6 for three or more leaves showing
Potted Concord grapevines were treated with 1000 mL water, solution containing 1000 mg ABA or solution containing 100 mg PBI-429. The dose of RBI-429 was used at one-tenth of ABA dose based on the preliminary results.

Substance: (S)-5-(1-hydroxy-2,6,6)-trimethyl-4-oxo-2-cyclohexen-1-yl)-3-methyl-(2 Z,4E)-pentadienoic acid [ABA]
- Average rating of bud break (1-6 scale) (Apr. 23, 2008): 1.0
- Average rating of bud break (1-6 scale) (April 28): 1.6
- Average rating of bud break (1-6 scale) (April 30): 1.8
- Average rating of bud break (1-6 scale) (May 2): 1.8
- Average rating of bud break (1-6 scale) (May 5): 2.1
- Average rating of bud break (1-6 scale) (May 7): 2.6
- Average rating of bud break (1-6 scale) (May 9): 2.9
- Average rating of bud break (1-6 scale) (May 12): 3.0
- Average rating of bud break (1-6 scale) (May 14): 3.0
- Average rating of bud break (1-6 scale) (May 16): 3.4
- Average rating of bud break (1-6 scale) (May 19): 4.2
- Average rating of bud break (1-6 scale) (May 21): 4.6
- Average rating of bud break (1-6 scale) (May 23): 4.9
- Average rating of bud break (1-6 scale) (May 28): 5.4
